Laboratory results taken from patent US20090087845A1, “Genetic Markers Of True Low Birth Weight” (priority 2005, published 2009).
Values joined by “and” are separate entries in the source; they are usually repeats but may differ in a detail not shown here. Equal values may be shown once.

Test system: placental gene expression
Test: Placental gene expression (Affymetrix Rat Genome Chip 230.2) after SSRI (fluoxetine) exposure throughout gestation
Assay type: in vivo
Method: Gene expression data from pregnant rats under different forms of dietary restriction was gathered. […] (N=8) • Group 2 (CR50): Rats Given 50% of their Normal Daily Intake of Food. (N=5) • Group 3 (CR70): Rats Given 70% of their Normal Daily Intake of Food. […] (N=6) Placentas from the rats of each Group were harvested on Day 21 of gestation. RNA was extracted and gene expression was measured based on hybridization of RNA to Affymetrix Rat Genome Chips™ (230.2) (Affymetrix, Santa Clara, Calif.).
In order to determine whether placental gene expression profiling can be used to identify other prenatal exposures such as toxicants and drugs, a group of rats with drug exposure was monitored as described above. […] As with control, CR50, CR70, and HF groups, placentas from the mothers were sampled after 21 days of gestation and gene expression monitored utilizing an Affymetrix Rat Genome Chip.

[1] = rat placenta, day 21 of gestation, individual animals of SSRI group

## CNCCC(Oc1ccc(C(F)(F)F)cc1)c1ccccc1 (centres unmarked) [fluoxetine, Fluoxetine]
placenta, SSRI-exposed samples
  expression, probeset 1384527_at: 5 and 5.16 and 4.806 and 4.891 and 4.944 and 4.995
  expression, probeset 1384528_at: 7.1 and 7.424 and 7.73 and 8.04 and 7.505 and 7.682
  expression, probeset 1384641_at: 5.867 and 5.877 and 5.784 and 5.513 and 5.517 and 5.626
  expression, probeset 1384849_at: 4.659 and 4.629 and 5.174 and 5.223 and 4.879 and 4.92
  expression, probeset 1384923_at: 6.977 and 7.2 and 6.818 and 6.939 and 6.837 and 6.982
  expression, probeset 1385137_at: 6.326 and 6.421 and 6.154 and 5.912 and 6.02 and 6.248
  expression, probeset 1385163_at: 6.063 and 5.993 and 6.045 and 5.955 and 5.885 and 6.124
  expression, probeset 1385336_at: 4.379 and 4.499 and 4.426 and 4.399 and 4.645 and 4.457
  expression, probeset 1385442_at: 7.16 and 7.404 and 6.997 and 6.879 and 6.92 and 6.943
  expression, probeset 1385518_at: 6.937 and 6.773 and 6.99 and 6.986 and 7.076 and 6.76
  expression, probeset 1385535_at: 4.02 and 3.842 and 4.063 and 4.09 and 4.042 and 4.166
  expression, probeset 1385652_at: 7.797 and 7.898 and 7.543 and 7.484 and 7.575 and 7.378
  expression, probeset 1385676_at: 8.114 and 8.061 and 8.462 and 8.533 and 8.039 and 8.344
  expression, probeset 1385698_at: 3.878 and 3.859 and 3.777 and 3.605 and 3.7424 and 3.746
  expression, probeset 1385760_at: 7.137 and 7.354 and 6.648 and 7.09 and 7.316 and 7.321
  expression, probeset 1385775_at: 4.145 and 4.375 and 3.896 and 3.993 and 4.079 and 4.161
  expression, probeset 1386125_at: 6.311 and 6.381 and 6.134 and 6.261 and 6.055 and 6.325
  expression, probeset 1386158_at: 4.004 and 4.128 and 4.063 and 4.152 and 3.988 and 3.931
  expression, probeset 1386414_at: 6.861 and 7.196 and 6.932 and 7.199 and 7.249 and 7.033
  expression, probeset 1386519_x_at: 7.188 and 7.295 and 7.082 and 7.038 and 7.203 and 7.126
  expression, probeset 1387083_at: 5.565 and 6.278 and 5.686 and 5.781 and 5.789 and 5.938
  expression, probeset 1387136_at: 6.691 and 6.697 and 6.593 and 6.718 and 6.67 and 6.537
  expression, probeset 1387406_at: 6.01 and 6.243 and 5.981 (2×) and 5.916 and 6.087
  expression, probeset 1387459_at: 3.484 and 3.639 and 3.932 and 3.86 and 3.992 and 3.799
  expression, probeset 1387764_at: 5.733 and 5.268 and 5.537 and 5.549 and 5.494 and 5.603
  expression, probeset 1387899_at: 5.335 and 5.408 and 5.339 and 5.026 and 4.958 and 5.215
  expression, probeset 1387912_at: 8.618 and 8.518 and 8.718 and 9.05 and 9.01 and 8.757
  expression, probeset 1388037_at: 4.856 and 4.68 and 4.647 and 4.894 and 4.953 and 4.682
  expression, probeset 1388091_at: 4.362 and 4.794 and 4.302 and 4.133 and 4.449 and 4.329
  expression, probeset 1388390_at: 10.86 and 10.87 and 11.34 and 11.8393 and 11.4165 and 11.4451
  expression, probeset 1388396_at: 8.176 and 7.836 and 8.032 and 8.018 and 7.774 and 8.067
  expression, probeset 1388447_at: 7.564 and 7.841 and 7.682 and 7.537 and 7.38 and 7.532
  expression, probeset 1388486_at: 7.701 and 7.565 and 7.723 and 7.751 and 7.921 and 7.749
  expression, probeset 1388781_at: 5.825 and 6.004 and 5.674 and 5.735 and 5.979 and 5.673
  expression, probeset 1388938_at: 9.061 and 9.268 and 8.805 and 8.994 and 8.728 and 9.107
  expression, probeset 1389095_at: 5.489 and 5.217 and 5.112 and 5.397 and 5.478 and 5.073
  expression, probeset 1389431_at: 6.558 and 6.3 and 6.381 and 6.49 and 6.951 and 6.471
  expression, probeset 1389551_at: 8.862 and 8.606 and 8.909 and 8.801 and 8.621 and 8.842
  expression, probeset 1389664_at: 7.741 and 8.146 and 7.529 and 7.949 and 7.982 and 7.952
  expression, probeset 1389835_at: 4.064 and 3.784 and 4.093 and 4.045 (2×) and 4.18
  expression, probeset 1389917_at: 5.998 and 5.507 and 6.012 and 5.987 and 5.908 and 5.888
  expression, probeset 1389938_at: 3.638 and 3.579 and 3.678 and 3.837 and 3.753 and 3.593
  expression, probeset 1390090_at: 7.476 and 7.464 and 7.498 and 7.393 and 7.3 and 7.578
  expression, probeset 1390259_at: 4.304 and 4.546 and 4.677 and 4.255 and 4.358 and 4.411
  expression, probeset 1390464_at: 5.625 and 5.847 and 5.541 and 5.807 and 5.983 and 5.83
  expression, probeset 1390534_at: 6.478
  expression, probeset 1390603_at: 6.467 and 6.868 and 6.527 and 6.621 and 6.242 and 6.674
  expression, probeset 1390649_at: 7.28 and 7.575 and 6.821 and 7.034 and 7.132 and 6.938
  expression, probeset 1390892_at: 5.112 and 5.3382 and 4.891 and 5.21 and 4.944 and 5.358
  expression, probeset 1391042_at: 7.197 and 7.167 and 6.844 and 6.389 and 6.757 and 6.835
  expression, probeset 1391078_at: 9.617 and 9.614 and 9.751 and 9.434 and 10.05 and 9.264
  expression, probeset 1391376_at: 7.297 and 7.473 and 6.881 and 6.738 and 6.838 and 6.654
  expression, probeset 1391555_at: 7.012 and 7.728 and 6.644 and 6.541 and 6.178 and 6.968
  expression, probeset 1391709_at: 4.661 and 4.684 and 4.722 and 4.806 and 4.713 and 4.47
  expression, probeset 1392028_at: 6.162 and 6.747 and 6.346 and 6.242 and 6.323 and 6.159
  expression, probeset 1392231_at: 6.879 and 7.148 and 7.615 and 7.767 and 7.913 and 7.35
  expression, probeset 1392936_at: 8.882 and 8.406 and 9.262 and 8.975 and 9.393 and 8.807
  expression, probeset 1392950_at: 3.949 and 4.094 and 3.999 and 4.085 and 4.164 and 3.919
  expression, probeset 1393104_at: 5.321 and 5.704 and 5.504 and 5.333 and 5.921 and 5.58
  expression, probeset 1393266_at: 4.99 and 5.174 and 4.982 and 4.609 and 4.824 and 4.636
  expression, probeset 1393517_at: 6.631 and 6.746 and 6.287 and 6.483 and 6.515 and 6.633
  expression, probeset 1393539_at: 6.157 and 5.169 and 4.952 and 5.172 and 5.083 and 5.053
  expression, probeset 1393580_at: 5.687 and 6.03 and 5.819 and 5.753 and 6.108 and 5.967
  expression, probeset 1393752_at: 6.208 and 6.548 and 6.148 and 6.455 and 6.651 and 6.417
  expression, probeset 1393798_at: 3.547 and 3.62 and 3.802 and 3.629 and 3.836 and 3.782
  expression, probeset 1393853_at: 5.346 and 5.933 and 5.865 and 5.835 and 5.821 and 5.912
  expression, probeset 1393939_at: 4.71 and 4.865 and 4.742 and 4.586 and 4.592 and 4.507
  expression, probeset 1393989_at: 5.99 and 6.475 and 6.07 and 6.001 and 6.425 and 6.268
  expression, probeset 1394361_a_at: 4.204 and 4.507 and 4.247 and 4.097 and 4.402 and 4.275
  expression, probeset 1394414_at: 9.565 and 9.667 and 9.428 and 9.394 and 9.769 and 9.655
  expression, probeset 1394498_at: 5.626 and 5.476 and 5.778 and 5.78 and 5.589 and 5.688
  expression, probeset 1394762_at: 3.748 and 3.837 and 3.727 and 3.741 and 3.941 and 3.853
  expression, probeset 1394790_at: 6.185 and 6.363 and 6.208 and 6.069 and 6.016 and 6.008
  expression, probeset 1395303_at: 3.284 and 3.242 and 3.289 and 3.3 and 3.261 and 3.274
  expression, probeset 1395316_at: 6.786 and 6.744 and 6.399 and 5.525 and 5.977 and 6.48
  expression, probeset 1395875_at: 7.411 and 7.212 and 7.607 and 7.667 and 7.918 and 7.66
  expression, probeset 1395951_at: 4.46 and 4.582 and 4.341 and 4.395 and 4.516 and 4.568
  expression, probeset 1395970_at: 4.781 and 4.846 and 4.597 and 4.342 and 4.707 and 4.733
  expression, probeset 1396104_at: 5.464 and 5.416 and 5.468 and 5.564 and 5.567 and 5.601
  expression, probeset 1396326_at: 5.928 and 5.926 (2×) and 5.857 and 6.008 and 5.802
  expression, probeset 1397116_at: 3.723 and 3.556 and 3.711 and 3.773 and 3.705 and 3.589
  expression, probeset 1397187_at: 5.847 and 6.088 and 6.024 and 5.915 and 5.91 and 5.886
  expression, probeset 1397500_x_at: 6.721 and 7.079 and 6.818 and 6.587 and 6.983 and 6.477
  expression, probeset 1397676_at: 6.024 and 6.128 and 5.935 and 6.174 and 6.311 and 5.898
  expression, probeset 1397738_at: 4.159 and 4.154 and 4.198 and 4.197 and 4.131 and 4.271
  expression, probeset 1397834_at: 6.223 and 6.44 and 5.752 and 5.565 and 5.81 and 5.978
  expression, probeset 1397911_at: 5.777 and 6.103 and 5.669 and 5.522 and 5.664 and 5.597
  expression, probeset 1397956_at: 5.497 and 5.765 and 4.575 and 4.745 and 5.255 and 5.147
  expression, probeset 1398025_at: 6.981 and 7.045 and 6.561 and 6.889 and 6.773 and 6.868
  expression, probeset 1398196_at: 5.275 and 5.259 and 5.614 and 5.101 and 5.599 and 5.566
  expression, probeset 1398208_s_at: 6.67 and 6.822 and 6.248 and 6.32 and 5.983 and 6.359
  expression, probeset 1398571_x_at: 5.476 and 5.783 and 5.339 and 5.581 and 5.638 and 5.597
Rat placenta, day 21 of gestation, approximately 10 mg/kg/day in drinking water throughout pregnancy, vs control
  number of probe sets whose expression was altered by exposure: 281 probe sets
[1]
  Log base 2 expression for G6 (probe set 1369132, solute carrier 18, member 2): 8.97 log base 2 and 9.76 log base 2 and 8.56 log base 2 and 8.71 log base 2 and 8.41 log base 2 and 9.1 log base 2
  Log base 2 expression for G7 (probe set 1368474, vascular adhesion molecule 1): 5.83 log base 2 and 6.83 log base 2 and 5.81 log base 2 and 5.78 log base 2 and 6.05 log base 2
  Log base 2 expression for G8 (probe set 1388116, collagen type 1 alpha): 8.34 log base 2 and 8.25 log base 2 and 7.56 log base 2 and 7.7 log base 2 and 7.57 log base 2 and 7.69 log base 2
  Log base 2 expression for G9 (probe set 1368558, allograft inflammatory factor 1): 5.07 log base 2 and 5.61 log base 2 and 6.11 log base 2 and 5.3 log base 2 and 5.39 log base 2
  Log base 2 expression for G10 (probe set 1387796, arachidonate 12 lipoxygenase): 7.19 log base 2 and 8.37 log base 2 and 8.23 log base 2 and 6.76 log base 2 and 8.03 log base 2
